Measurements taken from patent US12441775B2, “BCL-W polypeptides and mimetics for treating or preventing chemotherapy-induced peripheral neuropathy and hearing loss” (Dana-Farber Cancer Institute, Inc., priority 2016, dated 2025).

Tests used:
[1] = system: axons of E15 DRG sensory neurons; experiment: Axonal degeneration assay in compartmented chamber cultures (degeneration index); assay type: cell-based, rat; details: for axon degeneration (axonal fragmentation, degeneration index): 24 hours
Method: Cell culture. Compartmented chamber (Campenot) cultures were prepared as described (see, e.g., Fenstermacher et al., Springer Protocols: Neuromethods, 103:105-124 (2015)), with modifications. Briefly, DRGs from embryonic day 15 (E15) rats of either sex were dissected and trypsinized. DRGs (1.2×10^5 cells) were plated in the center compartment of a Teflon divider (Camp10, Tyler Research; Campenot, 1982) affixed to a p35 culture dish coated with growth factor reduced Matrigel basement membrane (BD Biosciences) 1:45 in DMEM. Cultures were maintained in media consisting of Neurobasal (Invitrogen) with 2% B27 supplement (Invitrogen), 1% penicillin-streptomycin, 1% GlutaMAX (Life Technologies), 0.08% glucose, and 0.3 μM cytosine arabinoside (AraC) at 37° C., 7.5% CO2; BDNF+NGF (PeproTech) were added to the cell body compartment at a concentration of 10 ng/ml and to the axon compartment at a concentration of 100 ng/ml for 2d. On day 3, media was replaced and the AraC was omitted. On day 5, neurotrophins were removed from the cell body compartment and reduced to 1 ng/ml in the axon compartments for 3-5 days. […] For calpain inhibition experiments, 20 μM calpain inhibitor III (VWR) and paclitaxel were added simultaneously to distal axon compartment.
Axonal degeneration assay. Compartmented chamber cultures were fixed at room temperature with 4% PFA diluted 1:2 in media for 10 min, then undiluted 4% PFA for an additional 20 min. Cultures were permeabilized with 0.1% TritonX-100 for 10 min, blocked in 3% BSA and 0.1% Triton X-100 for 1 hour at room temperature, and incubated with mouse anti-Tuj1 (1:400; clone Tuj1; Covance) overnight at 4° C. Cultures were then incubated with goat anti-mouse AlexaFluor (1:1000; Invitrogen) for 1 hour at room temperature and counterstained with DAPI. Images of distal axon tips were obtained using a 40× air objective, and axonal degeneration was quantified as a degeneration index, as previously described (Cosker et al., Neuroscience, 33:5195-5207 (2013)). Apoptosis analysis was carried out on the same cultures by taking images in the cell body compartment and counting total and condensed nuclei in NIH ImageJ software by an observer blind to condition.
Protein and peptide introduction. Recombinant His-tagged Bclw, Bcl2, and BclxL proteins (R&D Systems) or control β-galactosidase protein were introduced into cell bodies or axons of compartmented chamber cultures as described (e.g., Cosker et al., Nature Neuroscience, 19:690-696 (2016)). Briefly, 1 μg/μ1 protein was introduced into cultures using 2 μl Chariot reagent (Active Motif). To confirm expression of His-tagged proteins, cell bodies and axons were lysed in nonionic detergent, and protein lysates were separated as above and blotted with the following antibodies: anti-His (1:1000; Novagen) and anti-pan-actin (1:1000; Cell Signaling Technology). FITC-tagged SAHB peptides (BH4-Bclw, BH4-Bcl2, and BH4-BclxL; stock solutions 1 mM in DMSO) were introduced into cell bodies or axons using 350 ng peptide and 2 μl of Chariot reagent diluted 1:10 in water. Control was no peptide with 2 μl of 1:10 diluted Chariot. To confirm peptide expression, cultures were processed for axonal degeneration assay as above, and FITC immunofluorescence was examined with a 40× air objective. Paclitaxel was added to cultures 1 hour after protein or peptide transfection.

mice = experiment: Epidermal footpad innervation (Tuj1-positive intraepidermal nerve fibers); assay type: in vivo, mouse
Method: Paclitaxel treatment and behavioral testing. 2 month old age-matched bclw−/− and bclw+/+ mice (17-30 g) of either sex were injected intraperitoneally (IP) with 4 mg/kg paclitaxel (Bristol-Myers Squibb) every other day for 8 days (4 total injections). Paclitaxel was prepared as 1 part 6 mg/ml paclitaxel stock solution diluted in vehicle (1:1 v/v Cremophor EL [EMD Millipore] and dehydrated ethanol) and 2 parts sterile saline and injected at 10 μl/g. Control mice were injected with 1 part vehicle and 2 parts saline. […] For three days prior to the baseline testing, mice were weighed, trained on an automated RotaRod apparatus (4 rpm for 1 min without falling), and habituated in von Frey cages. The next two days, baseline behavioral performance was assessed and averaged. The first paclitaxel injection was given three days later, and mice were weighed and behaviorally tested 10 days after the final injection. To assay motor function, mice were placed on the RotaRod with a ramp of 4-40 rpm and 0.4 rpm/sec acceleration, and latency to fall was measured. […] Withdrawal threshold was determined to be the applied force at which the animal withdrew the stimulated paw on at least 2 of 10 applications. […] Mouse behavior was assessed by an experimenter blind to genotype and condition.
Epidermal footpad innervation. […] Images were acquired and quantified in NIH ImageJ by an experimenter blind to condition.

For `CC(=O)O[C@H]1C(=O)[C@@]2(C)[C@H]([C@H](OC(=O)c3ccccc3)[C@]3(O)C[C@H](OC(=O)[C@H](O)[C@@H](NC(=O)c4ccccc4)c4ccccc4)C(C)=C1C3(C)C)[C@]1(OC(C)=O)CO[C@@H]1C[C@@H]2O` [paclitaxel], the “axon degeneration (axonal fragmentation, degeneration index)” value ([1]; paclitaxel 30 nM added to cell body compartment) was “no effect”, the “axon degeneration (axonal fragmentation, degeneration index)” value ([1]; paclitaxel 30 nM added to distal axon compartment) was “increase axon degeneration” and the axonal degeneration ([1]; paclitaxel after shRNA knockdown of Bclw) was “further increased axonal degeneration”. The “intraepidermal nerve fiber number of the hindpaw” value (mice; bclw−/− compared to bclw+/+ mice, thick and thin skin) was “greater reduction in intraepidermal nerve fiber number” and the “thick skin epidermal innervation” value (mice; paclitaxel-treated compared with control mice (Example 12)) was “decreased thick skin epidermal innervation”.
